Test results as given in patent US20150141336A1, “Pancreatic Peptide Compounds and Use” (Novo Nordisk A/S, priority 2012, published 2015).
Numbered stars: 1 amine (or outer) side, 2 acyl side, 3 side chain; on linkers, the order of the positions; unused ones are H or OH. Side chains are listed from the residue outwards. Peptide text beside a SMILES is read from it. * marks the point of attachment. C18 diacid = O=C(O)CCCCCCCCCCCCCCCCC(=O)*; γGlu = O=C(O)[C@H](CCC(=O)[*:2])N[*:1]; AEEA = NCCOCCOCC(=O)O

Experiment: Assay (II) PK i.v. minipig, in vivo half-life
Design: species or system Göttingen mini-pigs
Details: male, Göttingen, minipig, iv, Half-life minipig, Assay (II)
Procedure: An assay useful for measuring the pharmacokinetic (PK) profile of the PP peptide is the following mini-pig PK assay.
Five male Göttingen mini-pigs weighing approximately 18 to 22 kg from Ellegaard Göttingen Minipigs NS, Denmark are included in the study. The mini-pigs have two central venous catheters inserted which are used for intra venous (i.v.) dosing and blood sampling. The test compound is dissolved in 50 mM K2HPO4, 0.05% tween 80, pH=8.0 to a concentration of 180 nmol/ml. For comparison a control compound, such as human PP(1-36), may be administered. The pigs are dosed with 6 nmol test compound/kg body weight. Blood samples are taken at the following time points: pre-dose, 30 minutes, 1, 2, 4, 8, 24, 48, 72, 96, 120, 168 and 240 hours post dosing. The blood samples were collected into test tubes containing EDTA buffer for stabilization and kept on ice for max. 20 minutes before centrifugation. The centrifugation procedure to separate plasma may be: 4° C., approx. 2500 g for 10 minutes. Plasma is collected and immediately transferred to Micronic tubes stored at −20° C. until assayed.
The test compounds were assayed in plasma by Turbulent Flow Chromatography coupled to Liquid Chromatography with subsequent Tandem Mass Spectrometric Detection (TFC/LC/MS/MS). Positive mode ionization and Multiple Reaction Monitoring (MRM) of a multiple protonated species fragmented to a singly charged ion was employed for selectivity. The selectivity of the method allows multiple compounds to be quantified in one sample.
The concentrations of the test compound in samples of unknown concentration were calculated using the peak area as a function of amount. Calibration graphs based on plasma samples spiked with the analyte were constructed by regression analysis. Typical dynamic range for standard assay was 1-2000 nmol/I. The method performance was assured by co-assaying quality control (QC) samples in duplicate at three concentration levels.
Stock and working solutions of analytes were prepared in plasma and incubated by 37° C. for 1 hour.
Sample Preparation: 40.0 μl EDTA-plasma was added 160 μl 50% methanol, 1% formic acid, then vortexed and centrifuged at 16457 g at 4° C. for 20 minutes. The supernatant was transferred to a 96 well plate, plates incubated with 0.4% BSA, 37° C. for ½ hour. Injection volume was 25 μl.
The analysis was carried out on a Sciex API 3000 mass spectrometer (MDS/Sciex, Concord, ON, Canada) using a TurbolonSpray interface. The TFC/LC system consisted of two Flux Rheos 2000 quaternary pumps, a Cohesive VIM module (Cohesive Technologies, Franklin, Mass., USA) and a CTC LC/PAL auto sampler (CTC Analytics, Zingen, Switzerland). The centrifuge employed was a HettichMikro 22R (A. Hettich, Tuttlingen, Germany). For sample clean up a TurboFlow C8 column (0.5×50 mm) (Cohesive Technologies/Thermofisher) was used and the LC separation was done on a Proteo 4 μm column (2.0×50 mm) (Phenomenex, Torrance, Calif., USA). Eluents were isocratic and gradient combinations of methanol, acetonitril, Milli-Q water and formic acid.
Non-compartmental analysis (NCA): Plasma concentration-time profiles are analyzed by non-compartmental pharmacokinetics analysis (NCA) using WinNonlin Professional 5.0 (Pharsight Inc., Mountain View, Calif., USA). NCA is performed using the individual plasma concentration-time profiles from each animal.

Which half-life does the source give for `CC[C@H](C)[C@H](NC(=O)[C@H](Cc1ccc(O)cc1)NC(=O)[C@H](CCCNC(=N)N)NC(=O)[C@H](CCCNC(=N)N)NC(=O)[C@H](CC(C)C)NC(=O)[C@H](CC(=O)O)NC(=O)[C@H](C)NC(=O)[C@H](C)NC(=O)[C@H](Cc1ccc(O)cc1)NC(=O)[C@H](CCC(N)=O)NC(=O)[C@H](C)NC(=O)[C@H](CCSC)NC(=O)[C@H](CCC(N)=O)NC(=O)[C@H](CCC(=O)O)NC(=O)[C@@H]1CCCN1C(=O)[C@@H](NC(=O)[C@H](C)NC(=O)[C@H](CC(N)=O)NC(=O)[C@H](CC(=O)O)NC(=O)CNC(=O)[C@@H]1CCCN1C(=O)[C@H](Cc1ccc(O)cc1)NC(=O)[C@@H](NC(=O)[C@H](CCCCNC(=O)COCCOCCNC(=O)COCCOCCNC(=O)CC[C@H](NC(=O)CCCCCCCCCCCCCCCCC(=O)O)C(=O)O)NC(=O)[C@H](CCC(=O)O)NC(=O)[C@@H](N)CC(C)C)C(C)C)[C@@H](C)O)C(=O)N[C@@H](CC(N)=O)C(=O)N[C@@H](CCSC)C(=O)N[C@@H](CC(C)C)C(=O)N[C@H](C(=O)N[C@@H](CCCNC(=N)N)C(=O)N1CCC[C@H]1C(=O)N[C@@H](CCCNC(=N)N)C(=O)N[C@@H](Cc1ccc(O)cc1)C(N)=O)[C@@H](C)O` [Compound BK] here?
Its half-life is 54 h.

For `CC[C@H](C)[C@H](NC(=O)[C@H](Cc1ccc(O)cc1)NC(=O)[C@H](CCCNC(=N)N)NC(=O)[C@H](CCCNC(=N)N)NC(=O)[C@H](CCCCNC(=O)COCCOCCNC(=O)COCCOCCNC(=O)CC[C@H](NC(=O)CCCCCCCCCCCCCCCCC(=O)O)C(=O)O)NC(=O)[C@H](CC(=O)O)NC(=O)[C@H](C)NC(=O)[C@H](C)NC(=O)[C@H](Cc1ccc(O)cc1)NC(=O)[C@H](CCC(N)=O)NC(=O)[C@H](C)NC(=O)[C@H](CCSC)NC(=O)[C@H](CCC(N)=O)NC(=O)[C@H](CCC(=O)O)NC(=O)[C@@H]1CCCN1C(=O)[C@@H](NC(=O)[C@H](C)NC(=O)[C@H](CC(N)=O)NC(=O)[C@H](CC(=O)O)NC(=O)CNC(=O)[C@@H]1CCCN1C(=O)[C@H](Cc1ccc(O)cc1)NC(=O)[C@@H](NC(=O)[C@@H]1CCCN1C(=O)[C@H](CCC(=O)O)NC(=O)[C@@H](N)CC(C)C)C(C)C)[C@@H](C)O)C(=O)N[C@@H](CC(N)=O)C(=O)N[C@@H](CCSC)C(=O)N[C@@H](CC(C)C)C(=O)N[C@H](C(=O)N[C@@H](CCCNC(=N)N)C(=O)N1CCC[C@H]1C(=O)N[C@@H](CCCNC(=N)N)C(=O)N[C@@H](Cc1ccc(O)cc1)C(N)=O)[C@@H](C)O` [Compound AR] (H-LEPVYPGDNATPEQMAQYAADK([AEEA-AEEA-γGlu-C18 diacid])RRYINMLTRPRY-NH2; N-terminus and C-terminus assumed), which half-life is on record?
Its half-life is 31 h.

With `CC[C@H](C)[C@H](NC(=O)[C@H](Cc1ccc(O)cc1)NC(=O)[C@H](CCCNC(=N)N)NC(=O)[C@H](CCCNC(=N)N)NC(=O)[C@H](CC(C)C)NC(=O)[C@H](CC(=O)O)NC(=O)[C@H](C)NC(=O)[C@H](C)NC(=O)[C@H](Cc1ccc(O)cc1)NC(=O)[C@H](CCC(N)=O)NC(=O)[C@H](C)NC(=O)[C@H](CCSC)NC(=O)[C@H](CCC(N)=O)NC(=O)[C@H](CCC(=O)O)NC(=O)[C@H](CCCCNC(=O)COCCOCCNC(=O)COCCOCCNC(=O)CC[C@H](NC(=O)CCCCCCCCCCCCCCCCC(=O)O)C(=O)O)NC(=O)[C@@H](NC(=O)[C@H](C)NC(=O)[C@H](CC(N)=O)NC(=O)[C@H](CC(=O)O)NC(=O)CNC(=O)[C@@H]1CCCN1C(=O)[C@H](Cc1ccc(O)cc1)NC(=O)[C@@H](NC(=O)[C@@H]1CCCN1C(=O)[C@H](CCC(=O)O)NC(=O)[C@H](CC(C)C)NC(=O)[C@@H]1CCCN1)C(C)C)[C@@H](C)O)C(=O)N[C@@H](CC(N)=O)C(=O)N[C@@H](CCSC)C(=O)N[C@@H](CC(C)C)C(=O)N[C@H](C(=O)N[C@@H](CCCNC(=N)N)C(=O)N1CCC[C@H]1C(=O)N[C@@H](CCCNC(=N)N)C(=O)N[C@@H](Cc1ccc(O)cc1)C(N)=O)[C@@H](C)O` [Compound T] (H-PLEPVYPGDNATK([AEEA-AEEA-γGlu-C18 diacid])EQMAQYAADLRRYINMLTRPRY-NH2; N-terminus and C-terminus assumed) as the compound, how does the half-life read?
Its half-life is 45 h.

For `CC[C@H](C)[C@H](NC(=O)[C@H](Cc1ccc(O)cc1)NC(=O)[C@H](CCCNC(=N)N)NC(=O)[C@H](CCCNC(=N)N)NC(=O)[C@H](CC(C)C)NC(=O)[C@H](CC(=O)O)NC(=O)[C@H](C)NC(=O)[C@H](C)NC(=O)[C@H](Cc1ccc(O)cc1)NC(=O)[C@H](CCC(N)=O)NC(=O)[C@H](C)NC(=O)[C@H](CCSC)NC(=O)[C@H](CCC(N)=O)NC(=O)[C@H](CCC(=O)O)NC(=O)[C@@H]1CCCN1C(=O)[C@@H](NC(=O)[C@H](C)NC(=O)[C@H](CC(N)=O)NC(=O)[C@H](CCCCNC(=O)COCCOCCNC(=O)COCCOCCNC(=O)CC[C@H](NC(=O)CCCCCCCCCCCCCCCCC(=O)O)C(=O)O)NC(=O)CNC(=O)[C@@H]1CCCN1C(=O)[C@H](Cc1ccc(O)cc1)NC(=O)[C@@H](NC(=O)[C@@H]1CCCN1C(=O)[C@H](CCC(=O)O)NC(=O)[C@H](CC(C)C)NC(=O)[C@@H]1CCCN1)C(C)C)[C@@H](C)O)C(=O)N[C@@H](CC(N)=O)C(=O)N[C@@H](CCSC)C(=O)N[C@@H](CC(C)C)C(=O)N[C@H](C(=O)N[C@@H](CCCNC(=N)N)C(=O)N1CCC[C@H]1C(=O)N[C@@H](CCCNC(=N)N)C(=O)N[C@@H](Cc1ccc(O)cc1)C(N)=O)[C@@H](C)O` [Compound X], which half-life is on record?
Its half-life is 47 h.

For `CC[C@H](C)[C@H](NC(=O)[C@H](Cc1ccc(O)cc1)NC(=O)[C@H](CCCNC(=N)N)NC(=O)[C@H](CCCCNC(=O)COCCOCCNC(=O)COCCOCCNC(=O)CC[C@H](NC(=O)CCCCCCCCCCCCCCCCC(=O)O)C(=O)O)NC(=O)[C@H](CC(C)C)NC(=O)[C@H](CC(=O)O)NC(=O)[C@H](C)NC(=O)[C@H](C)NC(=O)[C@H](Cc1ccc(O)cc1)NC(=O)[C@H](CCC(N)=O)NC(=O)[C@H](C)NC(=O)[C@H](CCSC)NC(=O)[C@H](CCC(N)=O)NC(=O)[C@H](CCC(=O)O)NC(=O)[C@@H]1CCCN1C(=O)[C@@H](NC(=O)[C@H](C)NC(=O)[C@H](CC(N)=O)NC(=O)[C@H](CC(=O)O)NC(=O)CNC(=O)[C@@H]1CCCN1C(=O)[C@H](Cc1ccc(O)cc1)NC(=O)[C@@H](NC(=O)[C@@H]1CCCN1C(=O)[C@H](CCC(=O)O)NC(=O)[C@H](CC(C)C)NC(=O)[C@@H]1CCCN1)C(C)C)[C@@H](C)O)C(=O)N[C@@H](CC(N)=O)C(=O)N[C@@H](CCSC)C(=O)N[C@@H](CC(C)C)C(=O)N[C@H](C(=O)N[C@@H](CCCNC(=N)N)C(=O)N1CCC[C@H]1C(=O)N[C@@H](CCCNC(=N)N)C(=O)N[C@@H](Cc1ccc(O)cc1)C(N)=O)[C@@H](C)O` [Compound I] (H-PLEPVYPGDNATPEQMAQYAADLK([AEEA-AEEA-γGlu-C18 diacid])RYINMLTRPRY-NH2; N-terminus and C-terminus assumed), which half-life is on record?
Its half-life is 88 h.

With `CC[C@H](C)[C@H](NC(=O)[C@H](Cc1ccc(O)cc1)NC(=O)[C@H](CCCNC(=N)N)NC(=O)[C@H](CCCNC(=N)N)NC(=O)[C@H](CC(C)C)NC(=O)[C@H](CC(=O)O)NC(=O)[C@H](CCCCNC(=O)COCCOCCNC(=O)COCCOCCNC(=O)CC[C@H](NC(=O)CCCCCCCCCCCCCCCCC(=O)O)C(=O)O)NC(=O)[C@H](C)NC(=O)[C@H](Cc1ccc(O)cc1)NC(=O)[C@H](CCC(N)=O)NC(=O)[C@H](C)NC(=O)[C@H](CCSC)NC(=O)[C@H](CCC(N)=O)NC(=O)[C@H](CCC(=O)O)NC(=O)[C@@H]1CCCN1C(=O)[C@@H](NC(=O)[C@H](C)NC(=O)[C@H](CC(N)=O)NC(=O)[C@H](CC(=O)O)NC(=O)CNC(=O)[C@@H]1CCCN1C(=O)[C@H](Cc1ccc(O)cc1)NC(=O)[C@@H](NC(=O)[C@@H]1CCCN1C(=O)[C@H](CCC(=O)O)NC(=O)[C@H](CC(C)C)NC(=O)[C@@H]1CCCN1)C(C)C)[C@@H](C)O)C(=O)N[C@@H](CC(N)=O)C(=O)N[C@@H](CCSC)C(=O)N[C@@H](CC(C)C)C(=O)N[C@H](C(=O)N[C@@H](CCCNC(=N)N)C(=O)N1CCC[C@H]1C(=O)N[C@@H](CCCNC(=N)N)C(=O)N[C@@H](Cc1ccc(O)cc1)C(N)=O)[C@@H](C)O` [Compound L] (H-PLEPVYPGDNATPEQMAQYAK([AEEA-AEEA-γGlu-C18 diacid])DLRRYINMLTRPRY-NH2; N-terminus and C-terminus assumed) as the compound, how does the half-life read?
The half-life was 83 h.
